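Compound exposure: 48 hours, 5 concentrations, 96-well plates. The concentration for full growth arrest is given as TGI.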
Assays:
Test in all cases: NCI-60 cell line screen, 48 h
M19-MEL melanoma = test system: M19-MEL melanoma
M14 melanoma = test system: M14 melanoma
HT29 colon = test system: HT29 colon
SNB-75 CNS = test system: SNB-75 CNS
HOP-62 NSCLC = test system: HOP-62 NSCLC
SF-268 CNS = test system: SF-268 CNS
RPMI-8226 leukemia = test system: RPMI-8226 leukemia
A498 renal = test system: A498 renal
OVCAR-5 ovarian = test system: OVCAR-5 ovarian
DMS 273 small cell lung = test system: DMS 273 small cell lung
DMS 114 small cell lung = test system: DMS 114 small cell lung
CCRF-CEM leukemia = test system: CCRF-CEM leukemia
KM20L2 colon = test system: KM20L2 colon
NCI-H522 lung = test system: NCI-H522 lung
ACHN renal = test system: ACHN renal
UO-31 renal = test system: UO-31 renal
HOP-18 NSCLC = test system: HOP-18 NSCLC
SN12C renal = test system: SN12C renal
SK-MEL-28 melanoma = test system: SK-MEL-28 melanoma
MALME-3M melanoma = test system: MALME-3M melanoma
OVCAR-8 ovarian = test system: OVCAR-8 ovarian
OVCAR-3 ovarian = test system: OVCAR-3 ovarian
SR leukemia = test system: SR leukemia
IGROV1 ovarian = test system: IGROV1 ovarian
HCT-15 colon = test system: HCT-15 colon
SK-MEL-5 melanoma = test system: SK-MEL-5 melanoma
RXF 393 renal = test system: RXF 393 renal
SK-OV-3 ovarian = test system: SK-OV-3 ovarian
LXFL 529 NSCLC = test system: LXFL 529 NSCLC
UACC-257 melanoma = test system: UACC-257 melanoma
TK-10 renal = test system: TK-10 renal
CAKI-1 renal = test system: CAKI-1 renal
COLO 205 colon = test system: COLO 205 colon
UACC-62 melanoma = test system: UACC-62 melanoma
OVCAR-4 ovarian = test system: OVCAR-4 ovarian
DLD-1 colon = test system: DLD-1 colon
SNB-19 CNS = test system: SNB-19 CNS
SF-295 CNS = test system: SF-295 CNS
HCC-2998 colon = test system: HCC-2998 colon
LOX IMVI melanoma = test system: LOX IMVI melanoma
MOLT-4 leukemia = test system: MOLT-4 leukemia
HL-60(TB) leukemia = test system: HL-60(TB) leukemia
SW-620 colon = test system: SW-620 colon
KM12 colon = test system: KM12 colon
HCT-116 colon = test system: HCT-116 colon
HOP-92 NSCLC = test system: HOP-92 NSCLC
SNB-78 CNS = test system: SNB-78 CNS
U251 CNS = test system: U251 CNS
SF-539 CNS = test system: SF-539 CNS
A549 NSCLC = test system: A549 NSCLC
786-0 renal = test system: 786-0 renal
NCI-H460 lung = test system: NCI-H460 lung
EKVX NSCLC = test system: EKVX NSCLC
NCI-H226 lung = test system: NCI-H226 lung
NCI-H23 lung = test system: NCI-H23 lung
K-562 leukemia = test system: K-562 leukemia
XF 498 CNS = test system: XF 498 CNS
SK-MEL-2 melanoma = test system: SK-MEL-2 melanoma

## Cc1cccc(O)c(=O)c1
M19-MEL melanoma
  TGI: > 100 µM
M14 melanoma
  TGI: > 100 µM
HT29 colon
  TGI: > 100 µM
SNB-75 CNS
  TGI: > 100 µM
HOP-62 NSCLC
  TGI: > 100 µM
SF-268 CNS
  TGI: > 100 µM
RPMI-8226 leukemia
  TGI: 92.6 µM
A498 renal
  TGI: > 100 µM
OVCAR-5 ovarian
  TGI: > 100 µM
DMS 273 small cell lung
  TGI: > 100 µM
DMS 114 small cell lung
  TGI: 45.7 µM
CCRF-CEM leukemia
  TGI: 33.8 µM
KM20L2 colon
  TGI: > 100 µM
NCI-H522 lung
  TGI: > 100 µM
ACHN renal
  TGI: > 100 µM
UO-31 renal
  TGI: > 100 µM
HOP-18 NSCLC
  TGI: > 100 µM
SN12C renal
  TGI: > 100 µM
SK-MEL-28 melanoma
  TGI: > 100 µM
MALME-3M melanoma
  TGI: > 100 µM
OVCAR-8 ovarian
  TGI: > 100 µM
OVCAR-3 ovarian
  TGI: > 100 µM
SR leukemia
  TGI: 80.6 µM
IGROV1 ovarian
  TGI: > 100 µM
HCT-15 colon
  TGI: > 100 µM
SK-MEL-5 melanoma
  TGI: > 100 µM
RXF 393 renal
  TGI: > 100 µM
SK-OV-3 ovarian
  TGI: > 100 µM
LXFL 529 NSCLC
  TGI: > 100 µM
UACC-257 melanoma
  TGI: > 100 µM
TK-10 renal
  TGI: > 100 µM
CAKI-1 renal
  TGI: > 100 µM
COLO 205 colon
  TGI: 37.8 µM
UACC-62 melanoma
  TGI: > 100 µM
OVCAR-4 ovarian
  TGI: > 100 µM
DLD-1 colon
  TGI: > 100 µM
SNB-19 CNS
  TGI: > 100 µM
SF-295 CNS
  TGI: > 100 µM
HCC-2998 colon
  TGI: > 100 µM
LOX IMVI melanoma
  TGI: > 100 µM
MOLT-4 leukemia
  TGI: > 100 µM
HL-60(TB) leukemia
  TGI: 12.1 µM
SW-620 colon
  TGI: > 100 µM
KM12 colon
  TGI: > 100 µM
HCT-116 colon
  TGI: > 100 µM
HOP-92 NSCLC
  TGI: > 100 µM
SNB-78 CNS
  TGI: > 100 µM
U251 CNS
  TGI: > 100 µM
SF-539 CNS
  TGI: > 100 µM
A549 NSCLC
  TGI: > 100 µM
786-0 renal
  TGI: > 100 µM
NCI-H460 lung
  TGI: > 100 µM
EKVX NSCLC
  TGI: 98.9 µM
NCI-H226 lung
  TGI: 29.3 µM

## O=C1OC2C=CC1C1(CCOC1=O)C2 (stereo not drawn)
M19-MEL melanoma
  TGI: > 100 µM
M14 melanoma
  TGI: > 100 µM
SNB-75 CNS
  TGI: > 100 µM
HOP-62 NSCLC
  TGI: > 100 µM
SF-268 CNS
  TGI: > 100 µM
NCI-H23 lung
  TGI: > 100 µM
RPMI-8226 leukemia
  TGI: > 100 µM
A498 renal
  TGI: > 100 µM
OVCAR-5 ovarian
  TGI: > 100 µM
DMS 273 small cell lung
  TGI: > 100 µM
DMS 114 small cell lung
  TGI: > 100 µM
CCRF-CEM leukemia
  TGI: > 100 µM
KM20L2 colon
  TGI: > 100 µM
NCI-H522 lung
  TGI: > 100 µM
ACHN renal
  TGI: > 100 µM
UO-31 renal
  TGI: > 100 µM
HOP-18 NSCLC
  TGI: > 100 µM
SN12C renal
  TGI: > 100 µM
SK-MEL-28 melanoma
  TGI: > 100 µM
MALME-3M melanoma
  TGI: > 100 µM
OVCAR-8 ovarian
  TGI: > 100 µM
OVCAR-3 ovarian
  TGI: > 100 µM
SR leukemia
  TGI: > 100 µM
IGROV1 ovarian
  TGI: > 100 µM
K-562 leukemia
  TGI: > 100 µM
HCT-15 colon
  TGI: > 100 µM
SK-MEL-5 melanoma
  TGI: > 100 µM
LXFL 529 NSCLC
  TGI: > 100 µM
UACC-257 melanoma
  TGI: > 100 µM
TK-10 renal
  TGI: > 100 µM
CAKI-1 renal
  TGI: > 100 µM
COLO 205 colon
  TGI: > 100 µM
UACC-62 melanoma
  TGI: 94.6 µM
OVCAR-4 ovarian
  TGI: > 100 µM
DLD-1 colon
  TGI: > 100 µM
SNB-19 CNS
  TGI: > 100 µM
HCC-2998 colon
  TGI: > 100 µM
LOX IMVI melanoma
  TGI: > 100 µM
MOLT-4 leukemia
  TGI: > 100 µM
HL-60(TB) leukemia
  TGI: > 100 µM
SW-620 colon
  TGI: > 100 µM
KM12 colon
  TGI: > 100 µM
HCT-116 colon
  TGI: > 100 µM
HOP-92 NSCLC
  TGI: > 100 µM
U251 CNS
  TGI: > 100 µM
XF 498 CNS
  TGI: > 100 µM
SF-539 CNS
  TGI: > 100 µM
A549 NSCLC
  TGI: > 100 µM
786-0 renal
  TGI: > 100 µM
NCI-H460 lung
  TGI: > 100 µM
SK-MEL-2 melanoma
  TGI: > 100 µM
EKVX NSCLC
  TGI: > 100 µM
NCI-H226 lung
  TGI: > 100 µM

## O=C(Nc1ccccc1C(=O)O)C(=O)C(C(=O)c1ccccc1-c1ccccc1)C1OC(=O)c2ccccc21 (stereo not drawn)
M19-MEL melanoma
  TGI: 64.2 µM
M14 melanoma
  TGI: 33.4 µM
HT29 colon
  TGI: 65.9 µM
SNB-75 CNS
  TGI: 53.5 µM
HOP-62 NSCLC
  TGI: 37.8 µM
SF-268 CNS
  TGI: 39.5 µM
NCI-H23 lung
  TGI: 40.5 µM
RPMI-8226 leukemia
  TGI: 98.2 µM
A498 renal
  TGI: 35.3 µM
OVCAR-5 ovarian
  TGI: 42.2 µM
DMS 273 small cell lung
  TGI: 95.3 µM
CCRF-CEM leukemia
  TGI: 78.4 µM
KM20L2 colon
  TGI: 44 µM
NCI-H522 lung
  TGI: 30.6 µM
ACHN renal
  TGI: 92.3 µM
UO-31 renal
  TGI: 32.5 µM
HOP-18 NSCLC
  TGI: 28.2 µM
SN12C renal
  TGI: 39.1 µM
SK-MEL-28 melanoma
  TGI: 35.1 µM
MALME-3M melanoma
  TGI: 28.6 µM
OVCAR-8 ovarian
  TGI: 37.9 µM
OVCAR-3 ovarian
  TGI: 34.3 µM
SR leukemia
  TGI: 71.1 µM
IGROV1 ovarian
  TGI: 56.3 µM
K-562 leukemia
  TGI: > 100 µM
HCT-15 colon
  TGI: 30.6 µM
SK-MEL-5 melanoma
  TGI: 33.9 µM
RXF 393 renal
  TGI: 27.2 µM
SK-OV-3 ovarian
  TGI: 94 µM
LXFL 529 NSCLC
  TGI: 28 µM
UACC-257 melanoma
  TGI: 37.7 µM
TK-10 renal
  TGI: 29.6 µM
CAKI-1 renal
  TGI: > 100 µM
COLO 205 colon
  TGI: 47.5 µM
UACC-62 melanoma
  TGI: 35.7 µM
OVCAR-4 ovarian
  TGI: > 100 µM
DLD-1 colon
  TGI: 47 µM
SNB-19 CNS
  TGI: 35.2 µM
SF-295 CNS
  TGI: 53.5 µM
HCC-2998 colon
  TGI: 30.6 µM
LOX IMVI melanoma
  TGI: 38.3 µM
MOLT-4 leukemia
  TGI: > 100 µM
HL-60(TB) leukemia
  TGI: 70.6 µM
SW-620 colon
  TGI: 56.6 µM
KM12 colon
  TGI: 33.6 µM
HCT-116 colon
  TGI: 36.5 µM
SNB-78 CNS
  TGI: > 100 µM
U251 CNS
  TGI: 28.9 µM
XF 498 CNS
  TGI: 22 µM
SF-539 CNS
  TGI: 35.8 µM
A549 NSCLC
  TGI: 81.9 µM
786-0 renal
  TGI: 33.3 µM
NCI-H460 lung
  TGI: 32.7 µM
SK-MEL-2 melanoma
  TGI: > 100 µM
EKVX NSCLC
  TGI: 58.6 µM
NCI-H226 lung
  TGI: 29.3 µM

— PubChem BioAssay (NCI)
